Laboratory results reported in publication PMC10525516, “Novel NADPH Oxidase-2 Inhibitors as Potential Anti-Inflammatory and Neuroprotective Agents” (Antioxidants, 2023).
Like-named read-outs stand apart in the source and are kept apart here.

Legend:
[1] = Plasma and brain pharmacokinetics in C57BL/6 mice; format: in vivo; conditions: male, C57BL/6, mouse, ip, C57BL6 mice, single dose 20 mg/kg i.p.
Method: TG15-132 at a 20 mg/kg dose in a vehicle formulation of 10% DMSO, 50% PEG400, and 40% reversed osmosis-purified water (v/v) was administered to healthy male C57BL/6 mice weighing an average of 27 g by intraperitoneal (i.p.) injection. Blood samples (approximately 60 μL) were collected from the retro-orbital plexus of three animals at times 0.08, 0.25, 0.5, 1, 2, 4, 8, and 24 h after compound administration. Along with the terminal blood samples, the brain samples were also collected at the time points 0.25, 0.5, 2.0, 4.0, 8.0, and 24 h.
Blood samples were collected into labeled microtubes containing dipotassium EDTA solution (20%) as an anticoagulant. Plasma was immediately harvested from the blood by centrifugation at 4000 rpm for 10 min at 4 ± 2 °C and stored below −70 °C until bioanalysis. After isolation, brain tissue samples were rinsed three times in ice cold normal saline (for 5–10 s/rinse using ~5–10 mL normal saline in disposable petri dishes for each rinse) and dried on blotting paper. Tissue samples were homogenized using ice-cold phosphate-buffered saline (pH 7.4). The total homogenate volume (µL) was three times the tissue weight (mg). All homogenates were stored below −70 ± 10 °C until bioanalysis. Concentrations of TG15-132 in plasma and brain samples were determined by fit-for-purpose liquid chromatography with the tandem mass spectrometry method (Sai-Life, Hyderabad, India). Phoenix WinNonlin (version 8.0, Certara, Princeton, NJ, USA) was used to analyze the pharmacokinetic parameters.

Nox2 = target: T1, Nox2 (Homo sapiens, UniProt P04839); assay: Plate reader hydroethidine (HE + DNA) assay of O2•− production by PMA-activated dHL60 cells; format: cell-based
T1 construct: endogenous in cells
T1 sequence (P04839 2-570 limits assumed): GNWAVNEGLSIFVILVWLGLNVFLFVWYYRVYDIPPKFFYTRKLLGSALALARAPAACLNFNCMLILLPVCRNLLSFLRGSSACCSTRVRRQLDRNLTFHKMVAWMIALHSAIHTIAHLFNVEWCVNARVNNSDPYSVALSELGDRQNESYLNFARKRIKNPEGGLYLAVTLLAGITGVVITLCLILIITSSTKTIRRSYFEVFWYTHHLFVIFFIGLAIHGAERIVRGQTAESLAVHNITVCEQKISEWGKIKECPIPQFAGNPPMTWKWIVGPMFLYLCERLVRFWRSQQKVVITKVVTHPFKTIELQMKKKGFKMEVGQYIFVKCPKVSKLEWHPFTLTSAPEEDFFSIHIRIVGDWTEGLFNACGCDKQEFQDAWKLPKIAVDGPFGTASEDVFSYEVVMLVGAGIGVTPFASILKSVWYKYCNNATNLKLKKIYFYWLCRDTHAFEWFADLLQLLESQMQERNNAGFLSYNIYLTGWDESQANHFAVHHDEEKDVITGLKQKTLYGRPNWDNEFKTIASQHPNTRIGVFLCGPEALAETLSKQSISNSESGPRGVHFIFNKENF
T1 sequence (P13498 2-195 partner limits assumed): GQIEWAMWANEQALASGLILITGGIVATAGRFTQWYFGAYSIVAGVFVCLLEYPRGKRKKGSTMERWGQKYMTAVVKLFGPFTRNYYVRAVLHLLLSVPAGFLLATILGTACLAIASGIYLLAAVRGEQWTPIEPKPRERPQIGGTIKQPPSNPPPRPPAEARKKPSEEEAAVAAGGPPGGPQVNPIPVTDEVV
Method: Human promyelocytic leukemia HL60 cells (Sigma-Aldrich) were grown in RPMI 1640 medium (Gibco, 11875-093, Billings, MT, USA) supplemented with 10% FBS (Omega Scientific (Tarzana, CA, USA)), 100 units/mL penicillin, and 100 µg/mL streptomycin, and were incubated at 37 °C and 5% carbon dioxide (CO2). For differentiation to neutrophil-like cells, HL60 cells were pelleted and resuspended in fresh media containing 1 µM of all trans-retinoic acid and incubated for four to five days. Nox2 activation was achieved by treating differentiated HL60 (dHL60) cells with 1 µM PMA [24]. […]
Plate reader-based analyses of the production of O2^•− and H2O2 by PMA-activated dHL60 cells were performed according to a published protocol with minor modifications. […] Once probes + PMA were added, plates were sealed with sealing film and immediately placed in the pre-warmed plate readers (37 °C). Fluorescence intensities were monitored kinetically from the bottom of the plates every 1.3 min for a period of 2 h using Beckman Coulter (Brea, CA, USA) DTX880 and BMG Labtech (Ortenberg, Germany) FLUOstar Omega plate readers. […] The IC50 values were determined using at least five independent measurements, each consisting of technical quadruplicates per concentration.

half-life ([1]; brain, read-out: brain half-life (converted)): 2.7 h
Kp ([1]; brain, read-out: brain-to-plasma ratio): > 6
half-life ([1]; plasma, read-out: plasma half-life (converted)): 2.7 h
IC50 (Nox2; HE probe + DNA, plate reader, PMA-activated dHL60 cells, Figure 5C, read-out: IC50, inhibition of O2•− production): 5 µM
PMA-stimulated increase in HE fluorescence intensity (Nox2; cell pretreatment, Figure 5B,C): dose-dependently inhibited
Structure (SMILES): CN(C)CCCn1c(SCCc2c[nH]c3ccccc23)nc2ccc(F)cc2c1=O [TG15-132]
